#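 Growth conditions: 96-well plates. Treatment: test compound, 48 hours, 5 concentrations. Analysis: linear interpolation between bracketing concentrations; unreached endpoints set to highest concentration. At the TGI there is no net growth.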
# Columns and labels:
# Assay in all cases: NCI-60 cell line screen, 48 h
# [1] = tested on: TK-10 renal
# [2] = tested on: MCF7 breast
# [3] = tested on: SK-MEL-28 melanoma
# [4] = tested on: COLO 205 colon
# [5] = tested on: DU-145 prostate
# [6] = tested on: LOX IMVI melanoma
# [7] = tested on: M14 melanoma
# [8] = tested on: HCC-2998 colon
# [9] = tested on: HT29 colon
# [10] = tested on: SK-MEL-5 melanoma
# [11] = tested on: SK-MEL-2 melanoma
# [12] = tested on: UACC-257 melanoma
# [13] = tested on: NCI-H460 lung
# [14] = tested on: PC-3 prostate
# [15] = tested on: HS 578T breast
# [16] = tested on: CAKI-1 renal
# [17] = tested on: SN12C renal
# [18] = tested on: RPMI-8226 leukemia
# [19] = tested on: BT-549 breast
SMILES,TGI [1],TGI [2],TGI [3],TGI [4],TGI [5],TGI [6],TGI [7],TGI [8],TGI [9],TGI [10],TGI [11],TGI [12],TGI [13],TGI [14],TGI [15],TGI [16],TGI [17],TGI [18],TGI [19]
O=c1c2ccccc2ncn1COCc1ccccc1,> 100 µM,> 100 µM,> 100 µM,> 100 µM,> 100 µM,> 100 µM,> 100 µM,> 100 µM,> 100 µM,> 100 µM,> 100 µM,> 100 µM,–,–,–,–,–,–,–
C[C@@H](c1ccccc1)N1C[C@@H](c2ccc3c(c2)OCO3)[C@@H]2C(=O)CCC[C@@H]21,> 100 µM,71.5 µM,76 µM,42.4 µM,> 100 µM,> 100 µM,36.9 µM,76.7 µM,> 100 µM,> 100 µM,94.8 µM,> 100 µM,> 100 µM,> 100 µM,> 100 µM,> 100 µM,> 100 µM,92.8 µM,–
COc1ccc(N[C@H](CS(=O)c2ccc(C)cc2)C(F)(F)F)cc1 (some centres undefined),> 100 µM,> 100 µM,> 100 µM,> 100 µM,> 100 µM,> 100 µM,> 100 µM,> 100 µM,> 100 µM,> 100 µM,> 100 µM,> 100 µM,> 100 µM,> 100 µM,–,> 100 µM,> 100 µM,–,> 100 µM
O=C(/C=C/c1ccc(-c2ccccc2)cc1)c1ccccc1,82.6 µM,–,67.5 µM,52.7 µM,–,29.2 µM,> 100 µM,33.7 µM,52.1 µM,49 µM,33.6 µM,> 100 µM,50.9 µM,–,–,> 100 µM,> 100 µM,61.8 µM,–
CCOP(=O)(OCC)/C(=C\n1ccc(=O)[nH]c1=S)C(=O)OC,–,> 100 µM,> 100 µM,> 100 µM,> 100 µM,> 100 µM,> 100 µM,> 100 µM,> 100 µM,> 100 µM,> 100 µM,> 100 µM,> 100 µM,> 100 µM,> 100 µM,> 100 µM,> 100 µM,> 100 µM,–
CC(=O)/C(=C/N1CC(=O)NC1=S)C(=O)Nc1ccccc1C,> 100 µM,–,> 100 µM,> 100 µM,> 100 µM,> 100 µM,> 100 µM,> 100 µM,> 100 µM,> 100 µM,> 100 µM,> 100 µM,> 100 µM,–,–,> 100 µM,> 100 µM,–,> 100 µM
COc1ccc(C2=NN(C(C)=O)c3nc4ccccc4nc3O2)cc1,52.1 µM,–,> 100 µM,> 100 µM,–,–,–,> 100 µM,> 100 µM,–,> 100 µM,> 100 µM,> 100 µM,–,–,–,> 100 µM,> 100 µM,–
CCOC(=O)C(=CNc1ccc(S(N)(=O)=O)cc1)C(=O)OCC,> 100 µM,> 100 µM,> 100 µM,> 100 µM,> 100 µM,> 100 µM,> 100 µM,> 100 µM,> 100 µM,> 100 µM,> 100 µM,> 100 µM,> 100 µM,> 100 µM,> 100 µM,> 100 µM,> 100 µM,> 100 µM,–
COc1c(C)c(C/C=C(\C)CC/C=C(\C)CC/C=C(\C)CC/C=C(\C)CCC=C(C)C)c(OC)c(OC)c1OC,69 µM,> 100 µM,–,> 100 µM,> 100 µM,33.7 µM,> 100 µM,–,> 100 µM,38.1 µM,> 100 µM,> 100 µM,23.2 µM,> 100 µM,> 100 µM,> 100 µM,52.7 µM,–,> 100 µM
O=C1C2CCCC2N1Cc1ccccc1 (centres undefined),> 100 µM,> 100 µM,–,> 100 µM,> 100 µM,> 100 µM,26.9 µM,> 100 µM,> 100 µM,> 100 µM,–,> 100 µM,> 100 µM,–,> 100 µM,> 100 µM,> 100 µM,> 100 µM,–
C/C(CC(O)(C(F)(F)F)C(F)(F)F)=N\NC(N)=S,> 10 µM,> 10 µM,> 10 µM,> 10 µM,> 10 µM,> 10 µM,> 10 µM,> 10 µM,> 10 µM,> 10 µM,> 10 µM,> 10 µM,> 10 µM,> 10 µM,> 10 µM,> 10 µM,> 10 µM,> 10 µM,–
CCSC1=N/C(=C\c2ccco2)C(Nc2ccc(C)cc2)=N1,> 100 µM,> 100 µM,> 100 µM,> 100 µM,> 100 µM,> 100 µM,> 100 µM,–,> 100 µM,> 100 µM,> 100 µM,–,–,> 100 µM,> 100 µM,–,> 100 µM,> 100 µM,–
